Reference: patent publication US12281114B2, “NK3 modulators and uses thereof” (Kallyope, Inc., priority 2023, dated 2025)

molecular target: T1, human NK3 (Homo sapiens, UniProt P29371); experiment: FLIPR calcium assay in antagonist mode (NKB EC70 challenge); type: cell-based; settings: stable cell line expressing human recombinant NK3; antagonist mode vs EC70 of NKB agonist
T1 sequence (P29371 1-465): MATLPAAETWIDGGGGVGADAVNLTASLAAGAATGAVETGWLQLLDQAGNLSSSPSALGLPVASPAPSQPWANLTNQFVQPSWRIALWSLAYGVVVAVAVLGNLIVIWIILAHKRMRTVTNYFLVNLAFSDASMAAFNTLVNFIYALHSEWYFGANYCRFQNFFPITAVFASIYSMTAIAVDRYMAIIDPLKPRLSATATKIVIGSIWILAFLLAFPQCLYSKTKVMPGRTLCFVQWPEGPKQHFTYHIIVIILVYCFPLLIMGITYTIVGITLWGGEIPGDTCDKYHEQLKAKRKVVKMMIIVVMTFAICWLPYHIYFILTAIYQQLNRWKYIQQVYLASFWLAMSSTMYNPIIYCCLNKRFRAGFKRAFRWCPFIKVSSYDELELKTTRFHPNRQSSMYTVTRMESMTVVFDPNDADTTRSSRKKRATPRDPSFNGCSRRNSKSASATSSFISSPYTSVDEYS
Description: Stable Cell Lines: A human recombinant NK3 Tachykinin Receptor stable cell line was purchased from GenScript (Genscript, Cat. #M00201; GenBank Accession Number NM 001059). The cell line was cultured according to manufacturer instructions, using 100 μg/mL Hygromycin B (Invitrogen, Cat. #D2650) for selective pressure. Cells were then collected using 0.05% Trypsin-EDTA (GIBCO, Cat. #25300) and frozen in a freezing media containing 90% FBS (Gibco, Cat. #10099-141) and 10% DMSO (Sigma, Cat. #D2650) at a density of 30×10^6 cells/mL. This bank of assay-ready frozen cells was later used in FLIPR assays to evaluate the potency and efficacy of NK3 antagonist test compounds.
FLIPR Calcium Assay: The FLIPR assay, used to measure changes in intracellular calcium levels, was performed in a 384-well plate format using the FLIPR Calcium 6 assay kit (Molecular Devices, Cat. #R8190). Assay-ready frozen cells expressing human NK3 (Genscript, Cat. #M00201) were thawed, washed, trypsinized, counted using a ViCell, and plated in cell growth media without Hygromycin at a density of […] (40 μL/well).
Calculation of NKB EC70: An EC70 concentration of NKB needed to be determined for competition against test antagonists prior to the compound screen. NKB agonist (Phoenix Pharmaceuticals, Cat. #046-26) was diluted in DMSO at 1800 nM (6-fold the final concentration) and serially diluted to generate a 13-point dose response curve (3-fold serial dilution) using an ECHO. 20 μL of 1× stimulation buffer was added using the BRAVO. 10 μL of DMSO was added while on the FLIPR (described as the first addition), then the RFU signal was measured for 10 minutes. The NKB titration was added to the plate, then the RFU signal was measured for 10 minutes (described as the second addition) on the FLIPR. The EC70 concentration was determined by using a four-parameter fit on GraphPad Prism prior to performing the compound screen.
FLIPR Screen in Antagonist Mode: Test compounds were prepared at 60 μM (6-fold the final concentration) and spotted in 370 nL using the Janus and ECHO. 20 μL of assay buffer was added using the BRAVO. Calcium-sensitive dye was reconstituted in loading buffer (Molecular Devices, Cat. #R8190). Media was removed from the cell plate using a Bluecat Cell Washer, and 40 μL of dye was added to the cell plate using the Apricot. The plate was incubated for 2 hours at 37° C., 5% CO2, then transferred to the FLIPR instrument. 10 μL of compound was added on the FLIPR (described as the first addition), then the RFU signal was measured for 10 minutes. EC70 of NKB agonist was added to the entire plate (described as the second addition), and the RFU signal was measured for 10 minutes on the FLIPR. RFU (relative fluorescence units) signals for first baseline, first peak, second baseline, and second peak were measured using the FLIPR. RFU signal (second peak minus second baseline) for positive (Max, at 10 μM antagonist) and negative (Min, at 0 μM antagonist) controls were used to normalize data and generate values for % Activity. IC50 and efficacy values were determined using a standard curve fitting equation on Dotmatics.

| Structure (SMILES) | IC50 [nM] |
| --- | --- |
| Cc1n[nH]cc1-c1ccccc1-c1nc2cc(C(=O)N[C@@H]3CO[C@H]4[C@@H]3OC[C@H]4O)ccn2c1Cl [Compound 475] | 5.74 |
| CCn1cc(-c2ccccc2-c2nc3cc(C(=O)N[C@@H]4CO[C@H]5[C@@H]4OC[C@H]5O)ccn3c2Cl)c(C)n1 [Compound 476] | 3.31 |
| CCn1ncc(-c2ccccc2-c2nc3cc(C(=O)N[C@@H]4CO[C@H]5[C@@H]4OC[C@H]5O)ccn3c2Cl)c1C [Compound 477] | 2.19 |
| Cc1nn(C)cc1-c1cccc(F)c1-c1nc2cc(C(=O)N3C[C@@H]4C[C@H]3C(=O)N4)ccn2c1Cl [Compound 487] | 2.21 |
| Cc1nn(C)cc1-c1ccccc1-c1nc2cc(C(=O)NC[C@@H](C)N3CCNC3=O)ccn2c1Cl [Compound 490] | 3.4 |
| Cc1nn(C)cc1-c1ccccc1-c1nc2cc(C(=O)NC34COC(CO)(C3)C4)ccn2c1Cl [Compound 615] | 2.5 |
| Cc1nn(C)cc1-c1ccccc1-c1nc2cc(C(=O)NCC34CC(CO)(CO3)C4)ccn2c1Cl [Compound 616] | 1.45 |
| Cc1nn(C)cc1-c1ccccc1-c1nc2cc(C(=O)N[C@H]3CO[C@H]4[C@@H]3OC[C@@H]4N)ccn2c1Cl [Compound 617] | 3.18 |
| Cc1nn(C)cc1-c1ccccc1-c1nc2cc(C(=O)N[C@@H]3C[C@H]3CO)ccn2c1Cl [Compound 619] | 1.24 |
| Cc1nn(C)cc1-c1ccccc1-c1nc2cc(C(=O)NC[C@H]3C[C@](C)(O)C3)ccn2c1Cl [Compound 629] | 1.06 |
| Cc1nn(C)cc1-c1ccccc1-c1nc2cc(C(=O)NC[C@H]3C[C@@](C)(O)C3)ccn2c1Cl [Compound 631] | 0.78 |
| Cc1nn(C)cc1-c1ccccc1-c1nc2cc(C(=O)NC[C@]34C[C@](CO)(C3)C4)ccn2c1Cl [Compound 635] | 1.65 |
| Cc1nn(C)cc1-c1ccccc1-c1nc2cc(C(=O)N[C@H]3C[C@H](CO)C3)ccn2c1Cl [Compound 641] | 1.04 |
| Cc1nn(C)cc1-c1ccccc1-c1nc2cc(C(=O)N[C@H]3C[C@@H](CO)C3)ccn2c1Cl [Compound 643] | 1.08 |
| Cc1nn(C)cc1-c1ccccc1-c1nc2cc(C(=O)N3C[C@@H]4[C@@H](O)[C@@H]4C3)ccn2c1Cl [Compound 647] | 9.16 |
| Cc1nn(C)cc1-c1ccccc1-c1nc2cc(C(=O)NCC3(O)COC3)ccn2c1Cl [Compound 650] | 5.83 |

| Structure (SMILES) | IC50 [nM] |
| --- | --- |
| Cc1nn(C)cc1-c1ccccc1-c1nc2cc(C(=O)NCCC3(O)COC3)ccn2c1Cl [Compound 651] | 9.28 |
| Cc1nn(C)cc1-c1ccccc1-c1nc2cc(C(=O)NC3CCNCC3)ccn2c1Cl [Compound 704] | 6.76 |
| Cc1nn(C)cc1-c1ccccc1-c1nc2cc(C(=O)NC(C)c3n[nH]c(=O)[nH]3)ccn2c1Cl (centres unmarked) [Compound 747] | 2.08 |
| Cc1nc(N)ccc1CNC(=O)c1ccn2c(Cl)c(-c3ccccc3-c3cn(C)nc3C)nc2c1 [Compound 759] | 2.78 |
| Cc1nn(C)cc1-c1ccccc1-c1nc2cc(C(=O)NCc3cnc(N)nc3)ccn2c1Cl [Compound 761] | 1.92 |
| Cc1nn(C)cc1-c1ccccc1-c1nc2cc(C(=O)N[C@H]3CO[C@H]4[C@@H]3OC[C@@H]4O)ccn2c1Cl [Compound 767] | 4.26 |
| Cc1nn(C)cc1-c1ccccc1-c1nc2cc(C(=O)N[C@H]3CO[C@H]4[C@@H]3OC[C@H]4O)ccn2c1Cl [Compound 768] | 1.96 |
| Cc1nn(C)cc1-c1cccc(F)c1-c1nc2cc(C(=O)N[C@H]3CO[C@H]4[C@@H]3OC[C@@H]4O)ccn2c1Cl [Compound 773] | 2.63 |
| Cc1nn(C)cc1-c1ccccc1-c1nc2cc(C(=O)N[C@H]3CO[C@H]4[C@@H]3OC[C@@H]4O)ccn2c1C#N [Compound 774] | 5.21 |
| Cc1nn(C)cc1-c1ccccc1-c1nc2cc(C(=O)N[C@H]3CO[C@H]4[C@@H]3OC[C@H]4O)ccn2c1C [Compound 779] | 5.82 |
| Cc1nn(C)cc1-c1cccc(F)c1-c1nc2cc(C(=O)N[C@H]3CO[C@H]4[C@@H]3OC[C@H]4O)ccn2c1Cl [Compound 780] | 3.34 |
| Cc1nn(C)cc1-c1ccccc1-c1nc2cc(C(=O)N[C@H]3CO[C@H]4[C@@H]3OC[C@H]4O)ccn2c1C#N [Compound 781] | 12.7 |
| Cc1c(-c2ccccc2-c2cn(C)nc2C(F)(F)F)nc2cc(C(=O)N[C@@H]3CO[C@H]4[C@@H]3OC[C@H]4O)ccn12 [Compound 783] | 3.21 |
| CC12CC(NC(=O)c3ccn4c(Cl)c(-c5c(F)cc(F)cc5-c5c[nH]nc5Cl)nc4c3)(CO1)C2 [Compound 788, 3-chloro-2-(2-(3-chloro-1H-pyrazol-4-yl)-4,6-difluorophenyl)-N-(1-methyl-2-oxabicyclo[2.1.1]hexan-4-yl)imidazo[1,2-a]pyridine-7-carboxamide] | 1.03 |
| N#CC12CC(NC(=O)c3ccn4c(Cl)c(-c5c(F)cc(F)cc5-c5c[nH]nc5F)nc4c3)(C1)C2 [Compound 789, 3-chloro-N-(3-cyanobicyclo[1.1.1]pentan-1-yl)-2-(2,4-difluoro-6-(3-fluoro-1H-pyrazol-4-yl)phenyl)imidazo[1,2-a]pyridine-7-carboxamide] | 1.99 |

Further compounds by falling IC50, results first:

| IC50 [nM] | Structure (SMILES) |
| --- | --- |
| 25.8 | Cc1nn(C)cc1-c1ccccc1-c1nc2cc(C(=O)N3CC(=O)N[C@@H](CO)C3)ccn2c1Cl [Compound 638] |
| 6.85 | Cc1nn(C)cc1-c1ccccc1-c1nc2cc(C(=O)N3CCc4n[nH]nc4C3)ccn2c1Cl [Compound 486] |
| 6.21 | Cc1c(-c2ccccc2-c2cn(C)nc2C(F)(F)F)nc2cc(C(=O)N[C@H]3CO[C@H]4[C@@H]3OC[C@H]4O)ccn12 [Compound 784] |
| 5.58 | Cc1nn(C)cc1-c1ccccc1-c1nc2cc(C(=O)NCCc3n[nH]c(=O)[nH]3)ccn2c1Cl [Compound 748] |
| 4.97 | Cc1nn(C)cc1-c1cccc(F)c1-c1nc2cc(C(=O)NC3CCNCC3)ccn2c1Cl [Compound 705] |
| 4.8 | Cc1nn(C)cc1-c1cccc(F)c1-c1nc2cc(C(=O)N[C@H]3CO[C@H]4[C@@H]3OC[C@H]4O)ccn2c1C#N [Compound 782] |
| 4.64 | Cc1nn(C)cc1-c1cccc(F)c1-c1nc2cc(C(=O)N[C@H]3CO[C@H]4[C@@H]3OC[C@@H]4O)ccn2c1C#N [Compound 775] |
| 3.81 | Cc1nn(C)cc1-c1ccccc1-c1nc2cc(C(=O)N3CC(=O)N[C@H](CO)C3)ccn2c1Cl [Compound 639] |
| 3.31 | CC12CC(NC(=O)c3ccn4c(Cl)c(-c5c(F)cc(F)cc5-c5c[nH]nc5F)nc4c3)(CO1)C2 [Compound 790, 3-chloro-2-(2,4-difluoro-6-(3-fluoro-1H-pyrazol-4-yl)phenyl)-N-(1-methyl-2-oxabicyclo[2.1.1]hexan-4-yl)imidazo[1,2-a]pyridine-7-carboxamide] |
| 2.65 | Cc1nn(C)cc1-c1ccccc1-c1nc2cc(C(=O)NCCS(N)(=O)=O)ccn2c1Cl [Compound 614] |
| 2.02 | Cc1nn(C)cc1-c1ccccc1-c1nc2cc(C(=O)NC[C@H]3C[C@@H](O)C3(C)C)ccn2c1Cl [Compound 645] |
| 1.53 | Cc1nn(C)cc1-c1ccccc1-c1nc2cc(C(=O)NC[C@]34C[C@](O)(C3)C4)ccn2c1Cl [Compound 633] |
| 0.59 | Cc1nn(C)cc1-c1ccccc1-c1nc2cc(C(=O)NCC34CC(CO)(CCO3)C4)ccn2c1Cl [Compound 624] |
